Source: US10266544B2, “Aryl substituted aminomethyl spectinomycin analogs as antibacterial agents” (ST. JUDE CHILDREN'S RESEARCH HOSPITAL, INC., priority 2013, dated 2019)
Counter-ions that a name gives are not always drawn. Like-named read-outs stand apart in the source and are kept apart here.

How the values were obtained:
Assay type in all cases: cell-based
[1] = test system: Bacillus anthracis, Sterne 34F2; experiment: microbe, parasite or virus in culture; details: STERNE34F2, read-out: MIC B.a.
[2] = test system: Bacillus subtilis (ATCC 23857); experiment: MIC determination, microbroth dilution; details: ATCC23857; Bacillus subtilis (ATCC 23857); read-out: MIC B.s.
[3] = test system: Staphylococcus aureus (ATCC 29213); experiment: MIC determination, microbroth dilution; details: ATCC29213; Staphylococcus aureus (ATCC 29213); read-out: MIC S.a.
[4] = test system: MRSA, Staphylococcus aureus (NRS70); experiment: MIC determination, microbroth dilution; details: Staphylococcus aureus (NRS70); read-out: MIC MRSA
[5] = test system: acinetobacter baumannii (ATCC 19606); experiment: MIC determination, microbroth dilution; details: ATCC19606
[6] = test system: Burkholderia cepacia (ATCC 25416); experiment: MIC determination, microbroth dilution; details: Burkholderia cepacia
[7] = test system: Klebsiella pneumoniae (ATCC 33495); experiment: MIC determination, microbroth dilution; details: ATCC33495
Bacillus anthracis = experiment: microbe, parasite or virus in culture; details: read-out: MIC B.a.
[8] = test system: M. tuberculosis clinical isolates; experiment: microbe, parasite or virus in culture; details: Mycobacterium tuberculosis
Listeria monocytogenes = experiment: MIC determination (Table 6)
Moraxella catarrhalis = experiment: MIC determination (Table 6)
[9] = test system: Streptococcus pneumoniae (R6); experiment: MIC determination, microbroth dilution; details: Streptococcus pneumoniae (R6); read-out: MIC S. pn.
[10] = test system: Streptococcus pyogenes (ATCC 700294); experiment: MIC determination, microbroth dilution; details: ATCC700294; Streptococcus pyogenes (ATCC 700294); read-out: MIC S. py.
[11] = test system: Escherichia coli (ATCC 700926); experiment: MIC determination, microbroth dilution; details: ATCC700926; Escherichia coli (ATCC 700926); read-out: MIC E.c.
Method: MICs were determined using the microbroth dilution method according to Clinical Laboratory Standards Institute (CLSI; National, C. F. C. L. S., Methods for Dilution Antimicrobial Susceptibility Tests for Bacteria Grow aerobically-Seventh Edition: Approved Standard M7-A7, CLSI, Wayne, Pa., USA, 2008) and were read by visual inspection. Two fold serial dilutions of antibiotic in 100 μL of the appropriate broth media were first prepared in 96-well round bottom microtiter plates (Nalge Nunc International, Rochester, N.Y., USA). An equivalent volume (100 μL) of bacterial broth inocula containing approximately 10^5 bacterial cfu/mL was added to each well to give final concentrations of drug starting at 200 μg/mL and the plates were incubated aerobically at 37° C. M. tuberculosis microtiter plates were incubated for 7 days and all other strains were incubated overnight. After incubations, in all cases the MIC was recorded as the lowest concentration of drug that prevented bacterial growth.

E. coli K12 ΔtolC = experiment: microbe, parasite or virus in culture; details: Escherichia coli, read-out: MIC E.c. Δtolc
[12] = test system: Pseudomonas aeruginosa (PA01); experiment: MIC determination, microbroth dilution
[13] = test system: Proteus mirabilis (ATCC 25933); experiment: MIC determination, microbroth dilution; details: ATCC25933
[14] = test system: Proteus vulgaris (ATCC 33420); experiment: MIC determination, microbroth dilution; details: ATCC33420
[15] = test system: Haemophilus influenza (ATCC 49247); experiment: microbe, parasite or virus in culture; details: ATCC49247; Haemophilus influenza; 4 μg per disc; range of at least two experiments; read-out: Zone of inhibition H.i.
[16] = test system: Legionella pneumophila (ATCC 33153); experiment: microbe, parasite or virus in culture; details: ATCC33153, 72 h, read-out: Zone of inhibition L.p.
[17] = test system: Neisseria meningitides (ATCC 13077); experiment: Disc diffusion assay; details: ATCC13077, 4 μg per disc, read-out: Zone of inhibition N.m.
[18] = test system: Neisseria gonorrhoeae (ATCC 49226); experiment: Disc diffusion assay; details: ATCC49226, 4 μg per disc, read-out: Zone of inhibition N.g.
[19] = test system: Stenotrophomonas maltophilia (ATCC 13637); experiment: MIC determination, microbroth dilution; details: ATCC13637; Stenotrophomonas maltophilia (ATCC 13637); read-out: MIC S.m.
[20] = ATCC25416, read-out: MIC B.c., Burkholderia cepacia (ATCC 25416)
[21] = ATCC25416, read-out: MIC B.c., Burkholderia cepacia, Table 6

Row | SMILES | MIC [1] [mg/L] | MIC [2] [mg/L] | MIC [3] [mg/L] | MIC [4] [mg/L] | MIC [5] [mg/L] | MIC [6, 20] [mg/L] | MIC [6, 21] [mg/L] | MIC [7] [mg/L] | MIC (Bacillus anthracis) [mg/L] | MIC ([8]; H37RV, read-out: MIC H37Rv) [mg/L] | MIC ([8]; read-out: MIC TN022) [mg/L] | MIC ([8]; read-out: MIC TN026) [mg/L] | MIC (Listeria monocytogenes) [mg/L] | MIC (Moraxella catarrhalis) [mg/L] | MIC [9] [mg/L] | MIC [10] [mg/L] | MIC [11] [mg/L] | MIC (E. coli K12 ΔtolC) [mg/L] | MIC [12] [mg/L] | MIC [13] [mg/L] | further results
1 | CN[C@@H]1[C@H](O)[C@H](NC)[C@H]2O[C@]3(O)[C@H](O[C@@H]2[C@H]1O)O[C@H](C)C[C@@]3(O)CNCCc1cccnc1 [compound 59, 3′-(R)-3′-[((2-(pyridin-3-yl)ethyl)aminomethyl]dihydrospectinomycintetrahydrobromide] | 50 | 12.5 to 25 | 100 | > 200 | > 200 | > 200 | > 200 | 100 | 50 | 6.3 | 6.3 | 6.3 | 12.5 | 3.1 | – | – | – | – | – | – | –
2 | CN[C@@H]1[C@H](O)[C@H](NC)[C@H]2O[C@]3(O)[C@H](O[C@@H]2[C@H]1O)O[C@H](C)C[C@@]3(O)CNCCc1ccc(C(F)(F)F)cc1 [compound 58, 3′-(R)-3′[(4-trifluoromethyl)phenethylaminomethyl]dihydrospectinomycin Trihydrochloride] | 12.5 to 25 | 6.3 | 12.5 | 50 to 100 | > 200 | > 200 | > 200 | > 200 | 12.5 to 25 | 3.1 | 3.1 | 6.3 | 3.1 | 0.4 | 1.6 to 3.1 | 1.6 to 3.1 | 6.3 to 12.5 | 1.6 | > 200 | 200 | MIC [14]: 200 mg/L; zone of inhibition at 4 µg/disc [15]: 19 mm; zone of inhibition at 4 µg/disc [16]: 26 mm; zone of inhibition at 4 µg/disc [17]: 16 mm; zone of inhibition at 4 µg/disc [18]: 19 mm
3 | CN[C@@H]1[C@H](O)[C@H](NC)[C@H]2O[C@]3(O)[C@H](O[C@@H]2[C@H]1O)O[C@H](C)C[C@@]3(O)CNCCc1ccncc1 [compound 63, 3′-(R)-3′-[((2-(pyridin-4-yl)ethyl)aminomethyl]dihydrospectinomycintetrahydrobromide] | > 200 | – | > 200 | > 200 | > 200 | > 200 | > 200 | > 200 | > 200 | 25 | 25 | 25 | 100 | 12.5 | – | – | – | – | – | – | –
4 | CN[C@@H]1[C@H](O)[C@H](NC)[C@H]2O[C@]3(O)[C@H](O[C@@H]2[C@H]1O)O[C@H](C)C[C@@]3(O)CNCCc1cnccn1 [compound 60, 3′-(R)-3′-[((2-(pyrazin-2-yl)ethyl)aminomethyl]dihydrospectinomycintetrahydrobromide] | 100 | 50 to 100 | 200 | > 200 | > 200 | > 200 | > 200 | 100 to 200 | 100 | 3.1 | 6.3 | 6.3 | 25 | 6.3 | 25 | 50 | 100 | 50 | > 200 | > 200 | MIC [14]: > 200 mg/L; MIC [19]: 25 mg/L
